Experimental data: ChEMBL document CHEMBL4613209, “Quinolone hybrids and their anti-cancer activities: An overview” (Eur J Med Chem, 2019)

Test system: HL-60
Experiment: Cytotoxicity against human HL60 cells assessed as reduction in cell viability by MTT assay
Format: functional, cell-based

Structure (SMILES) | IC50 [µM]
CC1COc2c(N3CCN(C)CC3)c(F)cc3c(=O)c(-c4nnc(SCc5nnc(-c6ccc([N+](=O)[O-])cc6)o5)o4)cn1c23 (configuration not stated) | 5.7 to 24.7
CC1COc2c(N3CCN(C)CC3)c(F)cc3c(=O)c(-c4nc5scc(-c6ccc(O)cc6)n5n4)cn1c23 (configuration not stated) | 3.6 to 56.8
CCn1cc(-c2nc3scc(-c4ccc5c(c4)OCO5)n3n2)c(=O)c2cc(F)c(N3CCN(C)CC3)cc21 | 3.6 to 56.8
COc1cc(-c2nnc(CSc3nnc(-c4cn(C5CC5)c5cc(N6CCN(C)CC6)c(F)cc5c4=O)o3)o2)cc(OC)c1OC | 2.4 to 32.4
CCn1cc(-c2nc3scc(-c4ccccc4OC)n3n2)c(=O)c2cc(F)c(N3CCN(C)CC3)cc21 | 3.6 to 56.8
COc1cc(-c2nnc(CSc3nnc(-c4cn5c6c(c(N7CCN(C)CC7)c(F)cc6c4=O)OCC5C)o3)o2)cc(OC)c1OC (configuration not stated) | 5.7 to 24.7
CC1COc2c(N3CCN(C)CC3)c(F)cc3c(=O)c(-c4nc5scc(-c6ccc7c(c6)OCO7)n5n4)cn1c23 (configuration not stated) | 3.6 to 56.8
CN1CCN(c2cc3c(cc2F)c(=O)c(-c2nnc(SCc4nnc(-c5ccccc5)o4)o2)cn3C2CC2)CC1 | 2.4 to 32.4
CCn1cc(-c2nc3scc(-c4ccc(F)cc4)n3n2)c(=O)c2cc(F)c(N3CCN(C)CC3)cc21 | 3.6 to 56.8
CC1COc2c(N3CCN(C)CC3)c(F)cc3c(=O)c(-c4nc5scc(-c6ccccc6)n5n4)cn1c23 (configuration not stated) | 3.6 to 56.8
CCn1cc(-c2nc3scc(-c4ccc(C)cc4)n3n2)c(=O)c2cc(F)c(N3CCN(C)CC3)cc21 | 3.6 to 56.8
Cc1ccc(-c2nnc(CSc3nnc(-c4cn(C5CC5)c5cc(N6CCN(C)CC6)c(F)cc5c4=O)o3)o2)cc1 | 2.4 to 32.4
COc1ccccc1-c1nnc(CSc2nnc(-c3cn4c5c(c(N6CCN(C)CC6)c(F)cc5c3=O)OCC4C)o2)o1 (configuration not stated) | 5.7 to 24.7
Cc1ccc(-c2nnc(CSc3nnc(-c4cn5c6c(c(N7CCN(C)CC7)c(F)cc6c4=O)OCC5C)o3)o2)cc1 (configuration not stated) | 5.7 to 24.7
CN1CCN(c2cc3c(cc2F)c(=O)c(-c2nc4scc(-c5ccc([N+](=O)[O-])cc5)n4n2)cn3C2CC2)CC1 | 3.6 to 7.6
COc1ccccc1-c1nnc(CSc2nnc(-c3cn(C4CC4)c4cc(N5CCN(C)CC5)c(F)cc4c3=O)o2)o1 | 2.4 to 32.4
COc1ccc(-c2csc3nc(-c4cn5c6c(c(N7CCN(C)CC7)c(F)cc6c4=O)OCC5C)nn23)cc1 (configuration not stated) | 26.7 to 35.7
Cc1ccc(-c2csc3nc(-c4cn5c6c(c(N7CCN(C)CC7)c(F)cc6c4=O)OCC5C)nn23)cc1 (configuration not stated) | 3.6 to 56.8

Test system: L1210
Experiment: Cytotoxicity against mouse L1210 cells assessed as reduction in cell viability by MTT assay
Format: functional, cell-based

Structure (SMILES) | IC50 [µM]
CC1COc2c(N3CCN(C)CC3)c(F)cc3c(=O)c(-c4nnc(SCc5nnc(-c6ccc([N+](=O)[O-])cc6)o5)o4)cn1c23 (configuration not stated) | 5.7 to 24.7
CC1COc2c(N3CCN(C)CC3)c(F)cc3c(=O)c(-c4nc5scc(-c6ccc(O)cc6)n5n4)cn1c23 (configuration not stated) | 3.6 to 56.8
CCn1cc(-c2nc3scc(-c4ccc5c(c4)OCO5)n3n2)c(=O)c2cc(F)c(N3CCN(C)CC3)cc21 | 3.6 to 56.8
COc1cc(-c2nnc(CSc3nnc(-c4cn(C5CC5)c5cc(N6CCN(C)CC6)c(F)cc5c4=O)o3)o2)cc(OC)c1OC | 2.4 to 32.4
CCn1cc(-c2nc3scc(-c4ccccc4OC)n3n2)c(=O)c2cc(F)c(N3CCN(C)CC3)cc21 | 3.6 to 56.8
COc1cc(-c2nnc(CSc3nnc(-c4cn5c6c(c(N7CCN(C)CC7)c(F)cc6c4=O)OCC5C)o3)o2)cc(OC)c1OC (configuration not stated) | 5.7 to 24.7
CC1COc2c(N3CCN(C)CC3)c(F)cc3c(=O)c(-c4nc5scc(-c6ccc7c(c6)OCO7)n5n4)cn1c23 (configuration not stated) | 3.6 to 56.8
CN1CCN(c2cc3c(cc2F)c(=O)c(-c2nnc(SCc4nnc(-c5ccccc5)o4)o2)cn3C2CC2)CC1 | 2.4 to 32.4
CCn1cc(-c2nc3scc(-c4ccc(F)cc4)n3n2)c(=O)c2cc(F)c(N3CCN(C)CC3)cc21 | 3.6 to 56.8
CC1COc2c(N3CCN(C)CC3)c(F)cc3c(=O)c(-c4nc5scc(-c6ccccc6)n5n4)cn1c23 (configuration not stated) | 3.6 to 56.8
CCn1cc(-c2nc3scc(-c4ccc(C)cc4)n3n2)c(=O)c2cc(F)c(N3CCN(C)CC3)cc21 | 3.6 to 56.8
Cc1ccc(-c2nnc(CSc3nnc(-c4cn(C5CC5)c5cc(N6CCN(C)CC6)c(F)cc5c4=O)o3)o2)cc1 | 2.4 to 32.4
COc1ccccc1-c1nnc(CSc2nnc(-c3cn4c5c(c(N6CCN(C)CC6)c(F)cc5c3=O)OCC4C)o2)o1 (configuration not stated) | 5.7 to 24.7
Cc1ccc(-c2nnc(CSc3nnc(-c4cn5c6c(c(N7CCN(C)CC7)c(F)cc6c4=O)OCC5C)o3)o2)cc1 (configuration not stated) | 5.7 to 24.7
COc1ccccc1-c1nnc(CSc2nnc(-c3cn(C4CC4)c4cc(N5CCN(C)CC5)c(F)cc4c3=O)o2)o1 | 2.4 to 32.4
COc1ccc(-c2csc3nc(-c4cn5c6c(c(N7CCN(C)CC7)c(F)cc6c4=O)OCC5C)nn23)cc1 (configuration not stated) | 26.7 to 35.7
Cc1ccc(-c2csc3nc(-c4cn5c6c(c(N7CCN(C)CC7)c(F)cc6c4=O)OCC5C)nn23)cc1 (configuration not stated) | 3.6 to 56.8

Test system: SMMC-7721
Experiment: Cytotoxicity against human SMMC7721 cells assessed as reduction in cell viability by MTT assay
Format: functional, cell-based

Structure (SMILES) | IC50 [µM]
CC1COc2c(N3CCN(C)CC3)c(F)cc3c(=O)c(-c4nnc(SCc5nnc(-c6ccc([N+](=O)[O-])cc6)o5)o4)cn1c23 (configuration not stated) | 5.7 to 24.7
CC1COc2c(N3CCN(C)CC3)c(F)cc3c(=O)c(-c4nc5scc(-c6ccc(O)cc6)n5n4)cn1c23 (configuration not stated) | 3.6 to 56.8
CCn1cc(-c2nc3scc(-c4ccc5c(c4)OCO5)n3n2)c(=O)c2cc(F)c(N3CCN(C)CC3)cc21 | 3.6 to 56.8
COc1cc(-c2nnc(CSc3nnc(-c4cn(C5CC5)c5cc(N6CCN(C)CC6)c(F)cc5c4=O)o3)o2)cc(OC)c1OC | 2.4 to 32.4
CCn1cc(-c2nc3scc(-c4ccccc4OC)n3n2)c(=O)c2cc(F)c(N3CCN(C)CC3)cc21 | 3.6 to 56.8
COc1cc(-c2nnc(CSc3nnc(-c4cn5c6c(c(N7CCN(C)CC7)c(F)cc6c4=O)OCC5C)o3)o2)cc(OC)c1OC (configuration not stated) | 5.7 to 24.7
CC1COc2c(N3CCN(C)CC3)c(F)cc3c(=O)c(-c4nc5scc(-c6ccc7c(c6)OCO7)n5n4)cn1c23 (configuration not stated) | 3.6 to 56.8
CN1CCN(c2cc3c(cc2F)c(=O)c(-c2nnc(SCc4nnc(-c5ccccc5)o4)o2)cn3C2CC2)CC1 | 2.4 to 32.4
CCn1cc(-c2nc3scc(-c4ccc(F)cc4)n3n2)c(=O)c2cc(F)c(N3CCN(C)CC3)cc21 | 3.6 to 56.8
CC1COc2c(N3CCN(C)CC3)c(F)cc3c(=O)c(-c4nc5scc(-c6ccccc6)n5n4)cn1c23 (configuration not stated) | 3.6 to 56.8
CCn1cc(-c2nc3scc(-c4ccc(C)cc4)n3n2)c(=O)c2cc(F)c(N3CCN(C)CC3)cc21 | 3.6 to 56.8
Cc1ccc(-c2nnc(CSc3nnc(-c4cn(C5CC5)c5cc(N6CCN(C)CC6)c(F)cc5c4=O)o3)o2)cc1 | 2.4 to 32.4
COc1ccccc1-c1nnc(CSc2nnc(-c3cn4c5c(c(N6CCN(C)CC6)c(F)cc5c3=O)OCC4C)o2)o1 (configuration not stated) | 5.7 to 24.7
Cc1ccc(-c2nnc(CSc3nnc(-c4cn5c6c(c(N7CCN(C)CC7)c(F)cc6c4=O)OCC5C)o3)o2)cc1 (configuration not stated) | 5.7 to 24.7
COc1ccccc1-c1nnc(CSc2nnc(-c3cn(C4CC4)c4cc(N5CCN(C)CC5)c(F)cc4c3=O)o2)o1 | 2.4 to 32.4
COc1ccc(-c2csc3nc(-c4cn5c6c(c(N7CCN(C)CC7)c(F)cc6c4=O)OCC5C)nn23)cc1 (configuration not stated) | 26.7 to 35.7
Cc1ccc(-c2csc3nc(-c4cn5c6c(c(N7CCN(C)CC7)c(F)cc6c4=O)OCC5C)nn23)cc1 (configuration not stated) | 3.6 to 56.8

Test system: CAPAN-1
Experiment: Cytotoxicity against human Capan1 cells assessed as reduction in cell viability by MTT assay
Format: functional, cell-based

Structure (SMILES) | IC50 [µM]
CC1COc2c(N3CCN(C)CC3)c(F)cc3c(=O)c(-c4nc5scc(-c6ccc(O)cc6)n5n4)cn1c23 (configuration not stated) | 3.6 to 56.8
CCn1cc(-c2nc3scc(-c4ccc5c(c4)OCO5)n3n2)c(=O)c2cc(F)c(N3CCN(C)CC3)cc21 | 3.6 to 56.8
CCn1cc(-c2nc3scc(-c4ccccc4OC)n3n2)c(=O)c2cc(F)c(N3CCN(C)CC3)cc21 | 3.6 to 56.8
CC1COc2c(N3CCN(C)CC3)c(F)cc3c(=O)c(-c4nc5scc(-c6ccc7c(c6)OCO7)n5n4)cn1c23 (configuration not stated) | 3.6 to 56.8
CCn1cc(-c2nc3scc(-c4ccc(F)cc4)n3n2)c(=O)c2cc(F)c(N3CCN(C)CC3)cc21 | 3.6 to 56.8
CC1COc2c(N3CCN(C)CC3)c(F)cc3c(=O)c(-c4nc5scc(-c6ccccc6)n5n4)cn1c23 (configuration not stated) | 3.6 to 56.8
CCn1cc(-c2nc3scc(-c4ccc(C)cc4)n3n2)c(=O)c2cc(F)c(N3CCN(C)CC3)cc21 | 3.6 to 56.8
CN1CCN(c2cc3c(cc2F)c(=O)c(-c2nc4scc(-c5ccc([N+](=O)[O-])cc5)n4n2)cn3C2CC2)CC1 | 3.6 to 7.6
COc1ccc(-c2csc3nc(-c4cn5c6c(c(N7CCN(C)CC7)c(F)cc6c4=O)OCC5C)nn23)cc1 (configuration not stated) | 26.7 to 35.7
Cc1ccc(-c2csc3nc(-c4cn5c6c(c(N7CCN(C)CC7)c(F)cc6c4=O)OCC5C)nn23)cc1 (configuration not stated) | 3.6 to 56.8

Test system: Hep 3B2
Experiment: Cytotoxicity against human Hep3B cells assessed as reduction in cell viability by MTT assay
Format: functional, cell-based

Structure (SMILES) | IC50 [µM]
CC1COc2c(N3CCN(C)CC3)c(F)cc3c(=O)c(-c4nc5scc(-c6ccc(O)cc6)n5n4)cn1c23 (configuration not stated) | 3.6 to 56.8
CCn1cc(-c2nc3scc(-c4ccc5c(c4)OCO5)n3n2)c(=O)c2cc(F)c(N3CCN(C)CC3)cc21 | 3.6 to 56.8
CCn1cc(-c2nc3scc(-c4ccccc4OC)n3n2)c(=O)c2cc(F)c(N3CCN(C)CC3)cc21 | 3.6 to 56.8
CC1COc2c(N3CCN(C)CC3)c(F)cc3c(=O)c(-c4nc5scc(-c6ccc7c(c6)OCO7)n5n4)cn1c23 (configuration not stated) | 3.6 to 56.8
CCn1cc(-c2nc3scc(-c4ccc(F)cc4)n3n2)c(=O)c2cc(F)c(N3CCN(C)CC3)cc21 | 3.6 to 56.8
CC1COc2c(N3CCN(C)CC3)c(F)cc3c(=O)c(-c4nc5scc(-c6ccccc6)n5n4)cn1c23 (configuration not stated) | 3.6 to 56.8
CCn1cc(-c2nc3scc(-c4ccc(C)cc4)n3n2)c(=O)c2cc(F)c(N3CCN(C)CC3)cc21 | 3.6 to 56.8
CN1CCN(c2cc3c(cc2F)c(=O)c(-c2nc4scc(-c5ccc([N+](=O)[O-])cc5)n4n2)cn3C2CC2)CC1 | 3.6 to 7.6
COc1ccc(-c2csc3nc(-c4cn5c6c(c(N7CCN(C)CC7)c(F)cc6c4=O)OCC5C)nn23)cc1 (configuration not stated) | 26.7 to 35.7
Cc1ccc(-c2csc3nc(-c4cn5c6c(c(N7CCN(C)CC7)c(F)cc6c4=O)OCC5C)nn23)cc1 (configuration not stated) | 3.6 to 56.8
